One compound from PubChem BioAssay AID652102 (NMMLSC, 2013) can be followed below.

This assay deals with Botulinum neurotoxin type A (Clostridium botulinum (strain Hall / ATCC 3502 / NCTC 13319 / Type A)) (UniProt P0DPI1). Nature of the assay: BoNT/A light chain protease inhibitors, confirmation, biochemical, FRET, full-length substrates, powder set 1 (AID 652102). The conditions noted are these: BoNT/A LC protease, FRET full-length substrate cleavage.
Sequence of Botulinum neurotoxin type A (Clostridium botulinum (strain Hall / ATCC 3502 / NCTC 13319 / Type A)) (P0DPI1 whole entry, looked up): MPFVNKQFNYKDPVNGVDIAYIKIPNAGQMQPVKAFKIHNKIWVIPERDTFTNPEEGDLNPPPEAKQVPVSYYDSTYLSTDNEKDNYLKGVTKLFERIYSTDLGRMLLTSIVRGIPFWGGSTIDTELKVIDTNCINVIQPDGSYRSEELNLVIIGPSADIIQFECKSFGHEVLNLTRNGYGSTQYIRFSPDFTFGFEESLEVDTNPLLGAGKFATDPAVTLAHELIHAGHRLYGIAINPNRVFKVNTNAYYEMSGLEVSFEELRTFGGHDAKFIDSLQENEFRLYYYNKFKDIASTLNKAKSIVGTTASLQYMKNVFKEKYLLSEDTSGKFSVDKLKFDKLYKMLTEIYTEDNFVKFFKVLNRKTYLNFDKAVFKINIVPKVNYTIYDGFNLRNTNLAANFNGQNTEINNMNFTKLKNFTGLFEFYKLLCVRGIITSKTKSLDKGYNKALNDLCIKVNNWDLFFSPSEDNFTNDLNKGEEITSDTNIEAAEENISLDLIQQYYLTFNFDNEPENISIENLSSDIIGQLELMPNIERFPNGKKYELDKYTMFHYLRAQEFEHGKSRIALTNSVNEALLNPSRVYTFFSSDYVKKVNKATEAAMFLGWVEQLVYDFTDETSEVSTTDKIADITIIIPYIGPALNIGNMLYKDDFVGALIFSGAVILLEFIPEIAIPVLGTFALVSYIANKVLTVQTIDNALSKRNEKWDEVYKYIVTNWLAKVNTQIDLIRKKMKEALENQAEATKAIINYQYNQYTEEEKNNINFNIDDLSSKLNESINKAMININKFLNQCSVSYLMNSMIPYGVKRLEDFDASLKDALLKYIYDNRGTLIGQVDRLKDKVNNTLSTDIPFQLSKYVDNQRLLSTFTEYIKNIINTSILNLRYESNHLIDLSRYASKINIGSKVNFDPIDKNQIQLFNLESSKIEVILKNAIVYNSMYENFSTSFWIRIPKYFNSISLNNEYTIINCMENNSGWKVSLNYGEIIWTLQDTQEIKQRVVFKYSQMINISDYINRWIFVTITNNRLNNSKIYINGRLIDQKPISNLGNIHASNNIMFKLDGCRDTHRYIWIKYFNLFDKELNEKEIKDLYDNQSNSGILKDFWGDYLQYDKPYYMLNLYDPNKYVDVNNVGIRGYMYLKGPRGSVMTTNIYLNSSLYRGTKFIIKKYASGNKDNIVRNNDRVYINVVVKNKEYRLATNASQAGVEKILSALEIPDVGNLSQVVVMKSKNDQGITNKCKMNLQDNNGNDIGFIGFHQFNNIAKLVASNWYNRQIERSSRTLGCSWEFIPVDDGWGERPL

Consider `c1ccc(-c2cn3nc(-c4ccccc4)c(-c4ccccc4)nc3n2)cc1`, for which the IC50 (usually the midpoint of a concentration-inhibition curve) was 600 nM.
